# How the values were obtained:
# [1] = system: CML cell lines K562, KYO.1 and Lama 84; assay: Apoptosis in CML cell lines, cytospin and staining; format: cell-based, human; conditions: 24 hours (10 μM elsewhere in the source)
# [2] = biological target: T1, peripheral-type benzodiazepine receptor (PBR) (Homo sapiens, UniProt P30536); assay: Radioligand binding assay, inhibition of [^3H]PK 11195 binding to HL-60 homogenates; conditions: HL-60 homogenates, 2 nM [^3H]PK 11195; mean±SEM; read-out: Inhibition of [^3H]PK 11195 binding to the PBR, Ki value
# T1 construct: Cell homogenates (50 μg protein) were incubated with 0.5-50 nM [^3H]; PK 11195; endogenous in cells; host or cells: HL-60 cell homogenate
# Description: HL-60 cells were harvested by centrifugation at 600 g for 5 min and washing in phosphate-buffered saline. The resulting cell pellet was homogenised in 50 mM Tris/HCl buffer, pH 7.4 (2 ml), using an Ultraturrax homogeniser (10 sec) and then passed 5 times through a 21 gauge needle. Cell homogenates (50 μg protein) were incubated with 0.5-50 nM [^3H] PK 11195 in 50 mM Tris/HCl buffer, pH 7.4 (incubation buffer), in a total volume of 0.5 ml on ice. Total and non-specific/non-saturable binding in each case was determined in the absence and presence of 10 μM unlabelled PK 11195 respectively. All samples were incubated in triplicate for 60 min. The incubation mixtures were then filtered and counted as previously described (O'Beirne, et al., 1988). When testing the potency of a compound to inhibit [^3H] PK 11195 binding, samples were incubated with 2 nM [3H] PK 11195 and various concentrations (0.1 nM to 1 μM) of compound and subsequently treated exactly as above. The resulting Ki values were then generated by the use of the computer programs EBDA and LIGAND.
# The amount of radioactivity bound in the presence of the displacer was expressed as a percentage of control bonding and the values represent the mean±SEM of triplicate determinations from one representative experiment performed at least twice. The Ki values were obtained as described in Methods section.
# [3] = system: PARP (poly ADP-ribose polymerase); assay: Western blot of PARP cleavage in CML cells; format: cell-based, human
# Description: CML cells were seeded at 2×10^6 cells in 5 mls of growth medium, and treated with 10 μM PBOX-6 for 16 and 24 hr. Hela cells were seeded at 1×10^6 cells per 25 cm^2 flask. Following a 24 hour incubation, the cells were treated with PBOX-3 for a further 48 hours and the cells were scraped up. Cells were then centrifuged at 500 g for 5 min, the supernatant was removed and the pellet was resuspended in 200 μl of PARP sample buffer (62.5 mM Tris/HCl pH 6.8, 6 M urea, 10% (w/v) glycerol, 2% (w/v) SDS, 0.00125% bromophenol blue, and 5% (v/v) β-mercaptoethanol was added immediately before use). Samples were sonicated for 15 sec before aliquoting into 15 μl volumes. Samples were stored at −20° C. until use. 10-15 μl of thawed samples were resolved directly on a 10% polyacrylamide gel and transferred onto PVDF membrane at room temperature using wet transfer apparatus. After transfer, the membrane was blocked overnight in PBS containing 5% dry milk (Marvel). After blocking, the membrane was washed in PBST for 2×2 minutes before incubating for 1 hr with anti-PARP antibody (2 μg/ml in PBST containing 1% dry milk). Following incubation the membrane was washed for 20 minutes in PBST and incubated with goat anti mouse HRP conjugated secondary antibody (1:1000 dilution in PBST containing 1% dry milk). After washing in PBST for 30 minutes, ECL was used to visualise the proteins. […]
# BCR-abl = assay: Western blot analysis of BCR-abl in CML cells; format: cell-based, human
# K562 cells = assay: Apoptosis in K562 cells, cytospin and staining; format: cell-based, human; conditions: K562, 16 hours
# HL-60 cells [4] = assay: Apoptosis in HL-60 cells, cytospin and Rapi-Diff staining
# JNK1 and JNK2 [5] = format: cell-based, human; conditions: K562 cells
# p42-44 = assay: Western blot of p42-44 activation in K562 cells; format: cell-based, human
# HL-60 cells [6] = assay: Agarose gel electrophoresis of DNA ladders, HL-60 cells; format: cell-based, human; conditions: 24 hours
# NFκB [7] = assay: NF kappa B binding activity, Hut-78 cells; format: cell-based, human
# Description: (§1) Cells were fractionated, and nuclear extracts were prepared as described by Stylianou et al. (1992). Briefly, cells were added to ice-cold phosphate-buffered saline and centrifuged using a swing out rotor at 136×g. They were washed in buffer A (10 mM Hepes, pH 7.9, 1.5 mM MgCl2, 10 mM KCl, […] [PMSF]) and centrifuged at 10000×g for 10 min. They were treated with buffer A+0.1% (vol/vol) Nonidet P40 on ice for 10 min. They were then centrifuged at 10000×g for 10 min and the pellet was treated with buffer C (20 mM Hepes, pH 7.9, 420 mM NaCl, 1.5 mM MgCl2, 2 mM EDTA, 20% [vol/vol] glycerol, 0.5 mM PMSF) on ice for 15 min. This material was centrifuged at 10000×g for 10 min and the supernatant was added to 75 u l of buffer D [10 mM Hepes, pH 7.9, 50 mM KCl, 0.2 mM EDTA, 20% (vol/vol) glycerol, 0.5 mM PMSF] per sample. The protein concentration in this crude nuclear extract was determined using the method of Bradford (1976). Protein (4 μg) was incubated with 10000 cpm of a ^32P-labelled oligonucleotide, containing the consensus sequence for NF kappa B, with binding buffer [40% (vol/vol) glycerol, 1 mM EDTA, 10 mM Tris, pH 7.5, 100 mM NaCl, 0.1 mg/ml nuclease free BSA] and 2 μg of poly(dI-dC) at room temperature for 30 min. Samples were resolved on a 5% native polyacrylamide gel which was subsequently dried and autoradiographed at −70° C. overnight.
# NFκB [8] = assay: NF kappa B binding activity, HL-60 nuclear extracts; format: cell-based, human; conditions: HL-60 cells
# Description: as §1
# JNK1 and JNK2 [9] = assay: Western blot of JNK activation in Lama 84 and KYO.1 cells; format: cell-based, human; conditions: Lama 84 and KYO.1, 45 minutes
# [10] = HL-60 cells and the 3 CML cell lines
# T1 sequence (P30536 whole entry): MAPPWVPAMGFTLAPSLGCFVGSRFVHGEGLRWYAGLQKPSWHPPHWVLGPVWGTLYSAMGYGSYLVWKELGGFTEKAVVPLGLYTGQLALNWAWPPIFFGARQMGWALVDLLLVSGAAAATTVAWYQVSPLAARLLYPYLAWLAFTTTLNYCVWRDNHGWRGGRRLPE
smiles,measurement,setting,value
"CN(C)C(=O)OC1=C(c2cccc3ccccc23)Oc2ccccc2-n2cccc21 [PBOX-6, 7-((Dimethylcarbamoyl)oxy)-6-(1-naphthyl)pyrrolo[2,1-d][1,5]benzoxazepine]",cells that had undergone apoptosis,[1],approximately 50%
same,Ki,[2],6.7 ± 1.7 nM
same,PARP cleavage,"[3]; K562 24 hours, Lama 84 16 hours",PARP cleavage occurs
same,PARP cleavage,"[3]; KYO.1 cells, 24 hours",result in PARP cleavage
same,BCR-abl expression,BCR-abl; K562 and KYO.1 cells,"downregulation of BCR-abl was detected, but not until 24 hours"
same,downregulation of BCR-abl,"BCR-abl; Lama 84 cells, up to 72 hours",not detected
same,cells that had undergone apoptosis,K562 cells,40-50%
same,apoptosis below a final concentration of 5 μM,HL-60 cells [4]; HL-60 cells,negligible
same,time at which morphological signs of apoptosis became apparent,HL-60 cells [4]; HL-60 cells,6 hours
same,concentration at which apoptosis was first observed,HL-60 cells [4]; [10],5 µM
same,time after which apoptosis was first observed,HL-60 cells [4]; [10],4 h
same,degree of necrosis,"HL-60 cells [4]; HL-60 cells, 10 μM, 16 hours",negligible
same,cytotoxicity at 10 µM,"HL-60 cells [4]; Homo sapiens, HL-60, 16 h, read-out: % Apoptosis",38.6 ± 4.6%
same,time at which JNK activation first becomes visible,JNK1 and JNK2 [5],15 min
same,time of peak JNK activation,JNK1 and JNK2 [5],30 to 45 min
same,activation of p42-44,p42-44,not activated
same,DNA fragmentation (ladder pattern),HL-60 cells [6],resulted in DNA fragmentation
same,effect on NFκB,NFκB [7],had no effect on NFκB
same,effect on NFκB,NFκB [8],failed to affect NFκB expression
same,activation of JNK1 and JNK2,JNK1 and JNK2 [9],found to be activated
